Laboratory results reported in PMC8151276, “An Integrated Approach toward NanoBRET Tracers for Analysis of GPCR Ligand Engagement” (Molecules, 2021).

Columns and labels:
Format in all cases: binding
[1] = biological target: T1, CCR2 (Homo sapiens, UniProt P41597); assay: NanoBRET screen HiBiT-CCR2 in HEK293
T1 construct: purchased Promega (in-house HiBiT-GPCR construct library, NanoBRET)
Procedure: (§1) Each tracer candidate was screened across the entire library of HiBiT-GPCR constructs using NanoBRET as the detection modality. As depicted in Figure 4A, the specificity of interactions was evaluated through decrease in BRET due to competitive displacement of a bound tracer by excess parental compound. Each tracer was analyzed for binding to each HiBiT-GPCR fusion in the absence and in the presence of competing parental compound. Briefly, HEK293 cells were transfected with HiBiT-GPCR constructs diluted into promoterless DNA to reduce expression and maximize translocation to the cell surface. Each tracer candidate was then screened at concentrations of 1 μM and 0.1 μM across cells expressing these fusions. Cells were treated for 1.5 h with tracer either alone or in the presence of 20 μM competing parental compound (i.e., control). BRET was measured upon addition of purified LgBiT and subsequent complementation with HiBiT genetically fused to a GPCR. The specificity of interactions was assessed through a decrease in BRET signal due to competitive displacement of the bound tracer. To further gauge the robustness of these interactions, the fold response over the control (i.e., BRETtracer/BRETcontrol) was calculated. We chose a 1.5-fold response, which translates to ≥7-fold signal over noise as the minimal threshold required to score an interaction as positive. […]. Below we highlight the screening results obtained for our exemplary fluorescent tracers based on Clozapine, Amitriptyline and AZD1283.
(§2) HiBiT-GPCR DNA constructs were diluted in 10 mM Tris pH 8 to a final concentration of 0.01 μg/μL, arrayed in 96-well plates and stored at −20 °C. For transfection, HEK293 cells were suspended in Opti-MEM (without phenol red) supplemented with 2% fetal bovine serum (Seradigm) and 100 units/mL penicillin–streptomycin (Gibco) at a final concentration of 220,000 cells/mL and dispensed into white 96-well plates at 90 μL/well. Subsequent transfections and screens were carried using an Agilent Bravo Automated Liquid Handling Platform. First, the 96-well HiBiT DNA arrays were diluted 25-fold in Opti-MEM (without serum or phenol red) to a final concentration of 0.0004 μg/μL and 20 μL of the diluted DNAs were transferred into new 96-well plates. Next, promoterless carrier DNA (1 μg/μL) was diluted 25-fold (0.04 μg/μL) and then dispensed into the diluted arrays at 20 μL/well. Following brief mixing, Viafect transfection reagent (Promega) diluted 16-fold into Opti-MEM was dispensed into the plates at 40 μL/well. After mixing by pipetting, plates were incubated for 10 min on the pipetting station deck. The DNA-transfection reagent complexes were then added to plates containing cells. To facilitate the screen, 10 μL of DNA-transfection reagent complexes were added in duplicates to the top 4 and bottom 4 rows, resulting in two identical 48-well arrays per plate. Plates with transfected cells were incubated for 18–20 h at 37 °C/5% CO2. A screen of each tracer across the entire library using two different concentrations requires duplicate plates of transfected cells. Depending on the number of tracers being screened, transfections can be scaled up using the same ratios. The next day, for each tracer, four 20× screening solutions in tracer dilution buffer (Promega) were prepared: two duplicates at final concentration of 20 μM and two duplicates at a final concentration of 2 μM. A competing unmodified compound was added to one of each duplicate at a final concentration of 400 μM. The four resulting solutions were diluted 4-fold in Opti-MEM without serum or phenol red to generate 5× solutions (5 µM and 0.5 µM tracer +/− 100 μM competing compound). To screen the library, a BioTek MultiFlo FX liquid dispenser was used to dispense 22.5 µL of tracer solution to the top 4 rows and 22.5 µL tracer + competing compound solution to the 4 bottom rows. Plates were briefly mixed on an orbital shaker and incubated for 1.5 h at room temperature. […]

[2] = biological target: T2, ACKR3 (Homo sapiens, UniProt P25106); assay: NanoBRET screen HiBiT-ACKR3 in HEK293
T2 construct: purchased Promega (in-house HiBiT-GPCR construct library, NanoBRET)
T2 sequence (P25106 whole entry): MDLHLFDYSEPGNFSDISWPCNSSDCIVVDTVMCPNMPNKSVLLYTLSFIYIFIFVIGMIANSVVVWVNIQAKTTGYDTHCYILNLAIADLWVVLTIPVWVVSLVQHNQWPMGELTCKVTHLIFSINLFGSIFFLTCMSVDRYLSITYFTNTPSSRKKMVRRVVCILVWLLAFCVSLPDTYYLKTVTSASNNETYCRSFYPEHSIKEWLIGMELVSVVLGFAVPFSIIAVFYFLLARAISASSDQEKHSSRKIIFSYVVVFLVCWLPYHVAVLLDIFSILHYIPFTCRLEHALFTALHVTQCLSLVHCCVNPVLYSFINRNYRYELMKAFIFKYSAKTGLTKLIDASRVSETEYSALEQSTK
Procedure: as §1, §2

[3] = biological target: T3, P2RY2 (Homo sapiens, UniProt P41231); assay: NanoBRET screen HiBiT-P2RY2 in HEK293
T3 construct: purchased Promega (in-house HiBiT-GPCR construct library, NanoBRET)
T3 sequence (P41231 whole entry): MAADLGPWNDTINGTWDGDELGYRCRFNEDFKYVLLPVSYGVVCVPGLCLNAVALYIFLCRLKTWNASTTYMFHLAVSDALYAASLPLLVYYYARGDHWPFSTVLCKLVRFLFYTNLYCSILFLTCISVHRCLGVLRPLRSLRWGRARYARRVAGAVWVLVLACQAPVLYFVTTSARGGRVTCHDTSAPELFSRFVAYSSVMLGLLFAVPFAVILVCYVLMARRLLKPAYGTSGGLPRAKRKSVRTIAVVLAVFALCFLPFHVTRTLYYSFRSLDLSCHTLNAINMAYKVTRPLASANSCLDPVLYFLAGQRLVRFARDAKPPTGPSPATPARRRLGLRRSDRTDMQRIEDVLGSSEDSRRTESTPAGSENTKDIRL
Procedure: as §1, §2

[4] = biological target: T4, P2RY10 (Homo sapiens, UniProt O00398); assay: NanoBRET screen HiBiT-P2RY10 in HEK293
T4 construct: purchased Promega (in-house HiBiT-GPCR construct library, NanoBRET)
T4 sequence (O00398 whole entry, one chain of several): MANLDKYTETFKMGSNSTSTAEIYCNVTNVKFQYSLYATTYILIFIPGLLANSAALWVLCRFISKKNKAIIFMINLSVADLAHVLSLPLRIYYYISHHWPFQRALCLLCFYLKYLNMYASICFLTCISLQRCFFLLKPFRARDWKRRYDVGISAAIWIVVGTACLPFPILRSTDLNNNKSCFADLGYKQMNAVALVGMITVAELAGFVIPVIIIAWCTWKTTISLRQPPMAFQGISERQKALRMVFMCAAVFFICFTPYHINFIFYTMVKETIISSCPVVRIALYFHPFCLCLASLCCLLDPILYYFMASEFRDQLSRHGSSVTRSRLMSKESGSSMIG
Procedure: as §1, §2

[5] = biological target: T5, PDGFRB (Homo sapiens, UniProt P09619); assay: NanoBRET screen HiBiT-PDGFRB in HEK293
T5 construct: purchased Promega (in-house HiBiT-GPCR construct library, NanoBRET)
T5 sequence (P09619 33-1106): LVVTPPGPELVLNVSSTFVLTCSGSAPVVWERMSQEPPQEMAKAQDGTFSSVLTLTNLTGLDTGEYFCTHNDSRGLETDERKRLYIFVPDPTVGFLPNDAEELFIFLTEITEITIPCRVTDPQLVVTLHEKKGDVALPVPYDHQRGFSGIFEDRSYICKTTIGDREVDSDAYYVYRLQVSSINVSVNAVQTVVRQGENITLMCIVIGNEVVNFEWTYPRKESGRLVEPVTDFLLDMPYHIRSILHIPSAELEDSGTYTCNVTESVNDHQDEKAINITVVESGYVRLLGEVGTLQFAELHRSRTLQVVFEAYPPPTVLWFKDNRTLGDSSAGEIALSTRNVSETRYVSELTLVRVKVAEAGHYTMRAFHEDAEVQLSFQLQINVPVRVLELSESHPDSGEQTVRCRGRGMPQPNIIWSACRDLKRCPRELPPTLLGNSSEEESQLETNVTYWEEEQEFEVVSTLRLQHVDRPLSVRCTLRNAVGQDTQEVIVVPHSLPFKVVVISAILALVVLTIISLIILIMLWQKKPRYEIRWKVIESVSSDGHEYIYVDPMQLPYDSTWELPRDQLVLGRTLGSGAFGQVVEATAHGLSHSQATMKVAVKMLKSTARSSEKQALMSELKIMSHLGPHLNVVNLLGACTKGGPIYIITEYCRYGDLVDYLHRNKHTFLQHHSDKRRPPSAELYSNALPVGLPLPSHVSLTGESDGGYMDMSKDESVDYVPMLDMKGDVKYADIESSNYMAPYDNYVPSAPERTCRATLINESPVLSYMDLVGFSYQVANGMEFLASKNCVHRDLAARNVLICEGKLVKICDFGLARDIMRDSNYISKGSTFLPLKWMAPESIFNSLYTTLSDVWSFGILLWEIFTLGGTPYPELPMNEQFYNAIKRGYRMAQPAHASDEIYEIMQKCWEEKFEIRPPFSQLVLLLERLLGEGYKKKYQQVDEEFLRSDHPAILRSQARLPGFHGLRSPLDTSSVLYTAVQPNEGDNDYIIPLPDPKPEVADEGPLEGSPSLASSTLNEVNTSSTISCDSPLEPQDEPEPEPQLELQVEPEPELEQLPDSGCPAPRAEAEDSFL
Procedure: as §1, §2

[6] = biological target: T6, GALR3 (Homo sapiens, UniProt O60755); assay: NanoBRET screen HiBiT-GALR3 in HEK293
T6 construct: purchased Promega (in-house HiBiT-GPCR construct library, NanoBRET)
T6 sequence (O60755 1-368): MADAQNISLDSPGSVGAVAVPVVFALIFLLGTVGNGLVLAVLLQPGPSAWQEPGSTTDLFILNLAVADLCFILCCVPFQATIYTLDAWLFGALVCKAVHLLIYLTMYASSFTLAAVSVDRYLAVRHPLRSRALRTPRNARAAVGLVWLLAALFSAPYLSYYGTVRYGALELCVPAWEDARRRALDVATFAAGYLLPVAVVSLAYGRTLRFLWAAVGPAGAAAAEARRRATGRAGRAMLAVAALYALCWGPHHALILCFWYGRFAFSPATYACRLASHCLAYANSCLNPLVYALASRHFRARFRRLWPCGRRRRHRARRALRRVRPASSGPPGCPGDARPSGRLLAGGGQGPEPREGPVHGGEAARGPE
Procedure: as §1, §2

[7] = biological target: T7, MC3R (Homo sapiens, UniProt P41968); assay: NanoBRET screen HiBiT-MC3R in HEK293; conditions: MC3R
T7 construct: purchased Promega (in-house HiBiT-GPCR construct library, NanoBRET)
T7 sequence (P41968 whole entry): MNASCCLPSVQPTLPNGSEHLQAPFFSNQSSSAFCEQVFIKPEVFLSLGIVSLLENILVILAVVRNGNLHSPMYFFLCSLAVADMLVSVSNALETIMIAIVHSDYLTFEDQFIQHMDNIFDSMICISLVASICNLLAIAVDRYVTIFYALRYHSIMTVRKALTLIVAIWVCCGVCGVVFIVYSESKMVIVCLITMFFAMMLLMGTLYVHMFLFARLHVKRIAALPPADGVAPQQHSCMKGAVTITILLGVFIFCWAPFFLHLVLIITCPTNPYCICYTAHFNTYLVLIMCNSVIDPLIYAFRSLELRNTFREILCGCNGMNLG
Procedure: as §1, §2

[8] = biological target: T8, MC4R (Homo sapiens, UniProt P32245); assay: NanoBRET screen HiBiT-MC4R in HEK293; conditions: MC4R
T8 construct: purchased Promega (in-house HiBiT-GPCR construct library, NanoBRET)
T8 sequence (P32245 whole entry): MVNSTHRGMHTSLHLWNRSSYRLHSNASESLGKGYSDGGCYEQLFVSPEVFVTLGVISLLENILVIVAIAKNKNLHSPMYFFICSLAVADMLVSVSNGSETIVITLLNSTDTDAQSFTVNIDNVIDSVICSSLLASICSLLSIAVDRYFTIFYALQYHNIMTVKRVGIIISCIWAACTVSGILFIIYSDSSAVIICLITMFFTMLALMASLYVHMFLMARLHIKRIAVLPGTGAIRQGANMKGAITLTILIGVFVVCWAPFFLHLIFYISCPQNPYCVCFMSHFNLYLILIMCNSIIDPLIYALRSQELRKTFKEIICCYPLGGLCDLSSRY
Procedure: as §1, §2

[9] = biological target: T9, PTGDR (Homo sapiens, UniProt Q13258); assay: NanoBRET screen HiBiT-PTGDR in HEK293; conditions: PTGDR
T9 construct: purchased Promega (in-house HiBiT-GPCR construct library, NanoBRET)
T9 sequence (Q13258 1-359): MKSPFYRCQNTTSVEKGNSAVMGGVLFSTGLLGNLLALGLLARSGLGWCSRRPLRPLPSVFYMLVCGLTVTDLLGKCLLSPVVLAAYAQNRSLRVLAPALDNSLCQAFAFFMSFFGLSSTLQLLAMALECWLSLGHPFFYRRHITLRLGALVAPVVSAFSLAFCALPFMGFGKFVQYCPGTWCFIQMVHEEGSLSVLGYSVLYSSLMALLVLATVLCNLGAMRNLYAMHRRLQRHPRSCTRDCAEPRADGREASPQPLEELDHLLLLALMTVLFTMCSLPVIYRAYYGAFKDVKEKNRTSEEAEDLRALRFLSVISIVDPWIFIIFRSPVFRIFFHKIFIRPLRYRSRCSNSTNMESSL
Procedure: as §1, §2

[10] = biological target: T10, GCGR (Homo sapiens, UniProt P47871); assay: NanoBRET screen HiBiT-GCGR in HEK293; conditions: GCGR
T10 construct: purchased Promega (in-house HiBiT-GPCR construct library, NanoBRET)
T10 sequence (P47871 26-477): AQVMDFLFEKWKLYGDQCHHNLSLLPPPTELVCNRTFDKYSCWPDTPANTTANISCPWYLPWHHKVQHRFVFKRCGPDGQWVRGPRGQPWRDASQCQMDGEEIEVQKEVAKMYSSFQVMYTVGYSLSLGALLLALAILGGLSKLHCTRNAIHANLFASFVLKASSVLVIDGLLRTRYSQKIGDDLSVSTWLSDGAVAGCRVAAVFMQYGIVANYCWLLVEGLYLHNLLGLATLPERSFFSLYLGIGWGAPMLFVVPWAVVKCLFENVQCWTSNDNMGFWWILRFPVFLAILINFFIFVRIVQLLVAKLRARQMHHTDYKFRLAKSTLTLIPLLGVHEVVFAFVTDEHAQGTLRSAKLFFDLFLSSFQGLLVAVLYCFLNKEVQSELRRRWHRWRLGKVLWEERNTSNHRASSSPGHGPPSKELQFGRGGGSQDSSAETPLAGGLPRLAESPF
Procedure: as §1, §2

T1 sequence (P41597 whole entry): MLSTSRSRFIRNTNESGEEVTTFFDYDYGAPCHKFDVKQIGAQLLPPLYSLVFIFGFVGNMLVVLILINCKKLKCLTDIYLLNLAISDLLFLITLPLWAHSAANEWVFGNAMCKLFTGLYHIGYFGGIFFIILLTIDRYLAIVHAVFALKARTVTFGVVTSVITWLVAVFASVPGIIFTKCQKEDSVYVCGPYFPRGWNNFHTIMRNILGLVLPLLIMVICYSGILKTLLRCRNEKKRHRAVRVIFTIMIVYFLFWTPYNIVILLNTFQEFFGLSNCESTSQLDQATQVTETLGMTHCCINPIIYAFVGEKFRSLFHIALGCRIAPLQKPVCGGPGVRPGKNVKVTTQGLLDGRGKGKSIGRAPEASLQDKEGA

## CCOC(=O)c1cc(C#N)c(N2CCC(C(=O)NS(=O)(=O)Cc3ccccc3/C=C/C(=O)NCCNC(=O)CCc3ccc4n3[B-](F)(F)[N+]3=C(c5ccc[nH]5)C=CC3=C4)CC2)nc1C [AZD1283-1-NB590]
[1]; CCR2, 0.1μM
  NanoBRET Fold Response: 0.93
[1]; CCR2, 1μM
  NanoBRET Fold Response: 1.04
[2]; ACKR3, 0.1μM
  NanoBRET Fold Response: 1.06
[2]; ACKR3, 1μM
  NanoBRET Fold Response: 1.19
[3]; P2RY2, 0.1μM
  NanoBRET Fold Response: 1.08
[3]; P2RY2, 1μM
  NanoBRET Fold Response: 1.12
[4]; P2RY10, 0.1μM
  NanoBRET Fold Response: 1.35
[4]; P2RY10, 1μM
  NanoBRET Fold Response: 1.22
[5]; PDGFRB, 0.1μM
  NanoBRET Fold Response: 1.10
[5]; PDGFRB, 1μM
  NanoBRET Fold Response: 1.16
[6]; GALR3, 0.1μM
  NanoBRET Fold Response: 0.91
[6]; GALR3, 1μM
  NanoBRET Fold Response: 1.00
[7]; 0.1μM
  NanoBRET Fold Response: 1.00
[7]; 1μM
  NanoBRET Fold Response: 0.98
[8]; 0.1μM
  NanoBRET Fold Response: 0.98
[8]; 1μM
  NanoBRET Fold Response: 1.01
[9]; 0.1μM
  NanoBRET Fold Response: 1.42
[9]; 1μM
  NanoBRET Fold Response: 1.19
[10]; 0.1μM
  NanoBRET Fold Response: 1.05
[10]; 1μM
  NanoBRET Fold Response: 1.12

## N#CN=C(NCCCOc1cccc(CN2CCCCC2)c1)NCCNC(=O)CCOCCOCCOCCOCCNC(=O)CCc1ccc2n1[B-](F)(F)[N+]1=C(c3ccc[nH]3)C=CC1=C2 [Aminopotentidine-2-NB590]
[1]; CCR2, tracer 0.1μM
  NanoBRET Fold Response: 0.93
[1]; CCR2, tracer 1μM
  NanoBRET Fold Response: 0.98
[2]; ACKR3, tracer 0.1μM
  NanoBRET Fold Response: 0.99
[2]; ACKR3, tracer 1μM
  NanoBRET Fold Response: 1.08
[3]; P2RY2, tracer 0.1μM
  NanoBRET Fold Response: 1.01
[3]; P2RY2, tracer 1μM
  NanoBRET Fold Response: 1.00
[4]; P2RY10, tracer 0.1μM
  NanoBRET Fold Response: 1.03
[4]; P2RY10, tracer 1μM
  NanoBRET Fold Response: 1.02
[5]; PDGFRB, tracer 0.1μM
  NanoBRET Fold Response: 0.90
[5]; PDGFRB, tracer 1μM
  NanoBRET Fold Response: 1.01
[6]; GALR3, tracer 0.1μM
  NanoBRET Fold Response: 1.09
[6]; GALR3, tracer 1μM
  NanoBRET Fold Response: 1.01
[7]; tracer 0.1μM
  NanoBRET Fold Response: 1.00
[7]; tracer 1μM
  NanoBRET Fold Response: 1.01
[8]; tracer 0.1μM
  NanoBRET Fold Response: 0.99
[8]; tracer 1μM
  NanoBRET Fold Response: 0.89
[9]; tracer 0.1μM
  NanoBRET Fold Response: 0.99
[9]; tracer 1μM
  NanoBRET Fold Response: 0.79
[10]; tracer 0.1μM
  NanoBRET Fold Response: 0.95
[10]; tracer 1μM
  NanoBRET Fold Response: 1.04

## CN(C)CCC=C1c2ccccc2CCc2ccc(C(=O)NCCNC(=O)CCOCCOCCOCCOCCNC(=O)CCc3ccc4n3[B-](F)(F)[N+]3=C(c5ccc[nH]5)C=CC3=C4)cc21 [Amitriptyline-a-2-NB590]
[1]; tracer at 0.1μM
  NanoBRET Fold Response: 1.19
[1]; tracer at 1μM
  NanoBRET Fold Response: 1.05
[2]; tracer at 0.1μM
  NanoBRET Fold Response: 1.15
[2]; tracer at 1μM
  NanoBRET Fold Response: 0.99
[3]; tracer at 0.1μM
  NanoBRET Fold Response: 1.00
[3]; tracer at 1μM
  NanoBRET Fold Response: 1.05
[4]; tracer at 0.1μM
  NanoBRET Fold Response: 1.09
[4]; tracer at 1μM
  NanoBRET Fold Response: 1.07
[5]; tracer at 0.1μM
  NanoBRET Fold Response: 1.17
[5]; tracer at 1μM
  NanoBRET Fold Response: 1.06
[6]; tracer at 0.1μM
  NanoBRET Fold Response: 0.98
[6]; tracer at 1μM
  NanoBRET Fold Response: 1.04
